Reference: patent US8013153B2, “Substituted pyrimidine kinase inhibitors” (Janssen Pharmaceutica, N.V., priority 2006, dated 2011)

Tests used:
[1] = test system: A375 malignant melanoma; assay: Inhibition of in vitro cell proliferation (A375); type: cell-based, human; settings: Homo sapiens, A-375, 14C-thymidine incorporation;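 also: cells plated for 24 h, given compound for 24 h, then labelled with 14C-thymidine for another 24 h, with DMSO-only wells as control and counts read by scintillation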
[2] = test system: HeLa cervical adenocarcinoma; assay: Inhibition of in vitro cell proliferation (HeLa); type: cell-based, human; settings: Homo sapiens, 14C-thymidine incorporation;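 also: cells exposed to compound for 24 h, then labelled 24 h with methyl 14C-thymidine, with uptake into DNA counted by scintillation against DMSO-only control wells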
[3] = molecular target: T1, CDK1:Cyclin-B (Homo sapiens, UniProt P06493); assay: CDK1 Screening Assay; type: biochemical
T1 construct: purchased New England Biolabs, Beverly, Mass; 6020; host or cells: insect cells
T1 sequence (P06493 whole entry): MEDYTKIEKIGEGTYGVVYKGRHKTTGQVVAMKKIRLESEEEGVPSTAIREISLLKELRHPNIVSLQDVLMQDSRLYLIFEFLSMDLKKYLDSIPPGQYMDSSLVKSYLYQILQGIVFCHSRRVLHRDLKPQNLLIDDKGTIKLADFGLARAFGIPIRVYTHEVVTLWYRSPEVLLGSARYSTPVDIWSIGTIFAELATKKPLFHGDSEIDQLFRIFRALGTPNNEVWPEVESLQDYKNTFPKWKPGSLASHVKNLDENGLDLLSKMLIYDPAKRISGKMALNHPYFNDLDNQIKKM
T1 sequence (P14635 whole entry partner): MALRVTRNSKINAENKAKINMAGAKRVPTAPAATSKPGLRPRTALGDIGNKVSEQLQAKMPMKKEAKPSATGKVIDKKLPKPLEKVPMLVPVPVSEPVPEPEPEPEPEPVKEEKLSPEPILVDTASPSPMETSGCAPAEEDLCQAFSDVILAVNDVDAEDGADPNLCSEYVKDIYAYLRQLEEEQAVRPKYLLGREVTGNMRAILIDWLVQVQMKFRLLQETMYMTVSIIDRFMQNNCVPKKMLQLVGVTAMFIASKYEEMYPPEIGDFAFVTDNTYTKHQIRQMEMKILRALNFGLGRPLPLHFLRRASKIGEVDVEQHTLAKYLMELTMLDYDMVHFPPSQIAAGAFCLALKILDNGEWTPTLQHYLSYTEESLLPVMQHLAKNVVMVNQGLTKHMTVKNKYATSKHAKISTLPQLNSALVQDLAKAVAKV

[4] = molecular target: T2, HER2 cytoplasmic domain (Homo sapiens, UniProt P04626); assay: HER2 Kinase Screening Assay; type: biochemical; settings: > means no observed 50% inhibition at the indicated test concentration; ~ means approximately 50% inhibition at that concentration
T2 construct: polyhistidine (N)
T2 sequence (P04626 676-1255 limits assumed): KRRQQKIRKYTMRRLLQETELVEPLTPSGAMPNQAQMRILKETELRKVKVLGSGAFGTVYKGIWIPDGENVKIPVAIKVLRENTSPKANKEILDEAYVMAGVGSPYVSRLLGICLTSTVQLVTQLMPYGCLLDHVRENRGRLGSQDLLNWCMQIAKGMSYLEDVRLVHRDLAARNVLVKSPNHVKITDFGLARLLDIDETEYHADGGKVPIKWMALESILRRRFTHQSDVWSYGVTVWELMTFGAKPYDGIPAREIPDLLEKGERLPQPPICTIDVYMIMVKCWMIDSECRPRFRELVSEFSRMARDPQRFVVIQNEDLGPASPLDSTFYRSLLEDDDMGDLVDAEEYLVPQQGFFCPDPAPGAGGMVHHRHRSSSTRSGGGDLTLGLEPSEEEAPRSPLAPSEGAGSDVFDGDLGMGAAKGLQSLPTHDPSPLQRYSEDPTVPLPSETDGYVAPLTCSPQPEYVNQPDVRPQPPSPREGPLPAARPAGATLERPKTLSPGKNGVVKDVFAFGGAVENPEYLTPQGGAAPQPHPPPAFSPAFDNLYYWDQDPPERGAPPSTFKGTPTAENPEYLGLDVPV

[5] = molecular target: T3, RET cytoplasmic domain (Homo sapiens, UniProt P07949); assay: RET Kinase Screening Assay; type: biochemical
T3 construct: the RET cytoplasmic domain consisting of the last 492 amino acids of the intracellular domain; histidine tag (N); made in house; host or cells: Hi5 insect cells
T3 sequence (P07949 658-1114 limits assumed): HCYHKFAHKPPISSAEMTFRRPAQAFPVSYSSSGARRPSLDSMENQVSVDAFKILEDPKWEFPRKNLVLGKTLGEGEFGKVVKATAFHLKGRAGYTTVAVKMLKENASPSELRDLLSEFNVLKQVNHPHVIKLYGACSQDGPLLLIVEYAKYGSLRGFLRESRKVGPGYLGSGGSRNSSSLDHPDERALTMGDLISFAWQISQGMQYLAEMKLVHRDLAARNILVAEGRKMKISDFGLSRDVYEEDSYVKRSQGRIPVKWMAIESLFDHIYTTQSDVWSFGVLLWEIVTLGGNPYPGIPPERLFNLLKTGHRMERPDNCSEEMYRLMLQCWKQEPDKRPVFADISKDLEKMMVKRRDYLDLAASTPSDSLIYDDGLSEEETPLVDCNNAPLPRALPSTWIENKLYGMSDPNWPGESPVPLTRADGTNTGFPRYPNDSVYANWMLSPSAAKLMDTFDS

[6] = test system: HCT-116 colon carcinoma; assay: Inhibition of in vitro cell proliferation (HCT116); type: cell-based, human; settings: Homo sapiens, HCT-116, 14C-thymidine incorporation;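 also: cells exposed to compound for 24 h, then 14C-thymidine added for a further 24 h and its uptake into DNA counted by scintillation, DMSO-only wells as control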
[7] = molecular target: T4, murine Aurora-A (Mus musculus, UniProt P97477); assay: Aurora-A Screening Assay; type: biochemical
T4 construct: replaced with the full length protein encoding the murine Aurora-A; made in house; host or cells: sf9 insect cells
T4 sequence (P97477 1-395): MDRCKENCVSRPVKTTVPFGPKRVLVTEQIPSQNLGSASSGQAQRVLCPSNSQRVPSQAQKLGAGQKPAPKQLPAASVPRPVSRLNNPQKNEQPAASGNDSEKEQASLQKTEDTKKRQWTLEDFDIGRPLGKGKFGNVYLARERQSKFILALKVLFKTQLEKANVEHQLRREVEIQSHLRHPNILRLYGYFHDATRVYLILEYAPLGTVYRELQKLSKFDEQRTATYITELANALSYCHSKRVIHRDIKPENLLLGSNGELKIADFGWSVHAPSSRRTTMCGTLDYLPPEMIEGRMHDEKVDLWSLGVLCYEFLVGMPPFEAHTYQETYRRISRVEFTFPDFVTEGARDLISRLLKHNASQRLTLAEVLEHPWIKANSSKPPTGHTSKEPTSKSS

[8] = molecular target: T5, rat VEGF-R2 kinase domain (Rattus norvegicus, UniProt O08775); assay: VEGF-R2 Screening Assay; type: biochemical; settings: > means no observed 50% inhibition at the indicated test concentration; ~ means approximately 50% inhibition at that concentration; read-out: IC50 VEGF-R2
T5 construct: amino acids 786-1343 of the rat VEGF-R2 kinase domain; polyhistidine (N)
T5 sequence (O08775 786-1343): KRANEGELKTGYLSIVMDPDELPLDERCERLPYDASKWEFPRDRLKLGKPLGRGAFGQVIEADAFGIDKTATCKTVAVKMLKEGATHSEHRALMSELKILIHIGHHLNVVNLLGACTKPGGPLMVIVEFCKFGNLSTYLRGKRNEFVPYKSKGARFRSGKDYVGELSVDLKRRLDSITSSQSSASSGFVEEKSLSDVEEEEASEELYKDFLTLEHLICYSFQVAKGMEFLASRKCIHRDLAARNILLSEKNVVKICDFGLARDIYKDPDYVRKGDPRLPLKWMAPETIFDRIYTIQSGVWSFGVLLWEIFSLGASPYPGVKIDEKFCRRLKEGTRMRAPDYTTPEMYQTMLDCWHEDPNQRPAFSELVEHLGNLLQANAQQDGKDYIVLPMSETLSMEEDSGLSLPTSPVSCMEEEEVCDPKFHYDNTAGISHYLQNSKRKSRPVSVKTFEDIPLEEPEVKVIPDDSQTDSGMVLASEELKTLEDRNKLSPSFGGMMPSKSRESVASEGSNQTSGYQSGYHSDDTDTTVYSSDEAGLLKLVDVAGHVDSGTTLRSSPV

SMILES: COCCON=Cc1c(N)ncnc1Oc1ccc2[nH]c(C)cc2c1F [Cpd 28, 4-amino-6-(4-fluoro-2-methyl-1H-indol-5-yloxy)-pyrimidine-5-carbaldehyde O-(2-methoxy-ethyl)-oxime]
- IC50 [1]: 0.233 µM
- IC50 [2]: 0.308 µM
- IC50 [3]: > 100 µM
- IC50 [4]: ~10 µM
- IC50 [5]: > 100 µM
- IC50 [6]: 0.387 µM
- IC50 [7]: > 100 µM

SMILES: Cc1cc2c(F)c(Oc3ncnc(N)c3C=NOCCCO)ccc2[nH]1 [Cpd 29, 4-amino-6-(4-fluoro-2-methyl-1H-indol-5-yloxy)-pyrimidine-5-carbaldehyde O-(3-hydroxy-propyl)-oxime]
- IC50 [1]: 0.336 µM
- IC50 [2]: 0.362 µM
- IC50 [3]: > 100 µM
- IC50 [4]: 4.63 µM
- IC50 [5]: > 10 µM
- IC50 [6]: 0.452 µM
- IC50 [7]: > 10 µM

SMILES: CON=Cc1c(N)ncnc1Oc1ccc2c(ccn2C)c1 [Cpd 11, 4-amino-6-(1-methyl-1H-indol-5-yloxy)-pyrimidine-5-carbaldehyde O-methyl-oxime]
- IC50 [1]: 0.326 µM
- IC50 [2]: 0.375 µM
- IC50 [3]: > 100 µM
- IC50 [4]: > 10 µM
- IC50 [5]: > 100 µM
- IC50 [6]: 0.749 µM
- IC50 [7]: > 100 µM

SMILES: Cc1cc2c(F)c(Oc3ncnc(N)c3C=NOCC3CCCCC3)ccc2[nH]1 [Cpd 35, 4-amino-6-(4-fluoro-2-methyl-1H-indol-5-yloxy)-pyrimidine-5-carbaldehyde O-cyclohexylmethyl-oxime]
- IC50 [1]: 4.92 µM
- IC50 [2]: 22.7 µM
- IC50 [3]: > 100 µM
- IC50 [4]: > 100 µM
- IC50 [5]: > 100 µM
- IC50 [6]: 16.1 µM
- IC50 [7]: > 100 µM

SMILES: CNC(=O)Nc1ccc(Oc2ncnc(N)c2C=NOC)cc1Cl [Cpd 51, 1-{4-[6-amino-5-(methoxyimino-methyl)-pyrimidin-4-yloxy]-2-chloro-phenyl}-3-methyl-urea]
- IC50 [1]: 4.09 µM
- IC50 [2]: 3.75 µM
- IC50 [3]: > 100 µM
- IC50 [4]: > 100 µM
- IC50 [5]: ~1 µM
- IC50 [6]: 4.21 µM
- IC50 [7]: > 100 µM
- IC50 [8]: 0.025 µM

SMILES: CNc1ncnc(Oc2ccc3[nH]ccc3c2)c1C=NOC [Cpd 3, 4-(1H-indol-5-yloxy)-6-methylamino-pyrimidine-5-carbaldehyde O-methyl-oxime]
- IC50 [1]: > 10 µM
- IC50 [2]: > 10 µM
- IC50 [3]: > 100 µM
- IC50 [4]: > 100 µM
- IC50 [5]: > 100 µM
- IC50 [6]: > 10 µM
- IC50 [7]: > 100 µM
- IC50 [8]: > 100 µM

SMILES: CO/N=C/c1c(N)ncnc1Oc1ccc2[nH]ccc2c1 [Cpd 10, 4-amino-6-(1H-indol-5-yloxy)-pyrimidine-5-carbaldehyde O-methyl-oxime]
- IC50 [1]: 0.783 µM
- IC50 [2]: 1.87 µM
- IC50 [3]: > 100 µM
- IC50 [4]: 0.697 µM
- IC50 [5]: 2.23 µM
- IC50 [6]: 3.52 µM
- IC50 [7]: > 10 µM

SMILES: CON=Cc1c(N)ncnc1Oc1cc2cc[nH]c2cc1F [Cpd 8, 4-amino-6-(6-fluoro-1H-indol-5-yloxy)-pyrimidine-5-carbaldehyde O-methyl-oxime]
- IC50 [1]: 0.327 µM
- IC50 [2]: 0.382 µM
- IC50 [3]: > 100 µM
- IC50 [4]: > 1 µM
- IC50 [5]: > 1 µM
- IC50 [6]: 0.422 µM
- IC50 [7]: > 10 µM

SMILES: CCCON=Cc1c(N)ncnc1Oc1ccc2[nH]c(C)cc2c1F [Cpd 34, 4-amino-6-(4-fluoro-2-methyl-1H-indol-5-yloxy)-pyrimidine-5-carbaldehyde O-propyl-oxime]
- IC50 [1]: 0.028 µM
- IC50 [2]: 0.04 µM
- IC50 [3]: > 100 µM
- IC50 [4]: > 100 µM
- IC50 [5]: ~10 µM
- IC50 [6]: 0.03 µM
- IC50 [7]: > 100 µM

SMILES: CON=Cc1c(N)ncnc1Oc1ccc2[nH]ccc2c1F [Cpd 7, 4-amino-6-(4-fluoro-1H-indol-5-yloxy)-pyrimidine-5-carbaldehyde O-methyl-oxime]
- IC50 [1]: 0.492 µM
- IC50 [2]: 0.401 µM
- IC50 [3]: > 100 µM
- IC50 [4]: 0.653 µM
- IC50 [5]: > 0.1 µM
- IC50 [6]: 0.365 µM
- IC50 [7]: > 100 µM

SMILES: CON=Cc1c(N)ncnc1Oc1ccc2[nH]cc(C)c2c1 [Cpd 9, 4-amino-6-(3-methyl-1H-indol-5-yloxy)-pyrimidine-5-carbaldehyde O-methyl-oxime]
- IC50 [1]: 0.132 µM
- IC50 [2]: 0.306 µM
- IC50 [3]: > 100 µM
- IC50 [4]: 0.208 µM
- IC50 [5]: > 100 µM
- IC50 [6]: 0.385 µM
- IC50 [7]: > 10 µM

SMILES: Cc1cc2c(F)c(Oc3ncnc(N)c3C=NOCCN3CCCC3)ccc2[nH]1 [Cpd 13, 4-amino-6-(4-fluoro-2-methyl-1H-indol-5-yloxy)-pyrimidine-5-carbaldehyde O-(2-pyrrolidin-1yl-ethyl)-oxime]
- IC50 [1]: 2.16 µM
- IC50 [2]: 4.22 µM
- IC50 [3]: > 100 µM
- IC50 [4]: > 10 µM
- IC50 [5]: > 100 µM
- IC50 [6]: 4.61 µM
- IC50 [7]: ~100 µM

SMILES: CCCCON=Cc1c(N)ncnc1Oc1ccc2[nH]c(C)cc2c1F [Cpd 37, 4-amino-6-(4-fluoro-2-methyl-1H-indol-5-yloxy)-pyrimidine-5-carbaldehyde O-butyl-oxime]
- IC50 [1]: 0.446 µM
- IC50 [2]: 0.607 µM
- IC50 [3]: > 100 µM
- IC50 [4]: > 100 µM
- IC50 [5]: > 100 µM
- IC50 [6]: 3 µM
- IC50 [7]: > 100 µM

SMILES: CON=Cc1c(N)ncnc1Oc1ccc2ncccc2c1 [Cpd 5, 4-amino-6-(quinolin-6-yloxy)-pyrimidine-5-carbaldehyde O-methyl-oxime]
- IC50 [1]: 1.82 µM
- IC50 [2]: 3.43 µM
- IC50 [3]: > 100 µM
- IC50 [4]: > 100 µM
- IC50 [5]: 2.01 µM
- IC50 [6]: 2.87 µM
- IC50 [7]: > 10 µM

SMILES: CCON=Cc1c(N)ncnc1Oc1ccc2[nH]c(C)cc2c1F [Cpd 1, 4-amino-6-(4-fluoro-2-methyl-1H-indol-5-yloxy)-pyrimidine-5-carbaldehyde O-ethyl-oxime]
- IC50 [1]: 0.027 µM
- IC50 [2]: 0.032 µM
- IC50 [3]: > 100 µM
- IC50 [4]: > 100 µM
- IC50 [5]: > 100 µM
- IC50 [6]: 0.036 µM
- IC50 [7]: > 100 µM

SMILES: Cc1cc2c(F)c(Oc3ncnc(N)c3C=NOCc3ccccc3)ccc2[nH]1 [Cpd 36, 4-amino-6-(4-fluoro-2-methyl-1H-indol-5-yloxy)-pyrimidine-5-carbaldehyde O-benzyl-oxime]
- IC50 [1]: 0.062 µM
- IC50 [2]: 0.266 µM
- IC50 [3]: > 100 µM
- IC50 [4]: > 100 µM
- IC50 [5]: > 100 µM
- IC50 [6]: 0.311 µM
- IC50 [7]: > 100 µM

SMILES: CNCCON=Cc1c(N)ncnc1Oc1ccc2[nH]c(C)cc2c1F [Cpd 16, 4-amino-6-(4-fluoro-2-methyl-1H-indol-5-yloxy)-pyrimidine-5-carbaldehyde O-(2-methylamino-ethyl)-oxime]
- IC50 [1]: 0.345 µM
- IC50 [2]: 2.01 µM
- IC50 [3]: > 100 µM
- IC50 [4]: 10.9 µM
- IC50 [5]: > 100 µM
- IC50 [6]: 3.04 µM
- IC50 [7]: > 100 µM

SMILES: Cc1cc2c(F)c(Oc3ncnc(N)c3C=NOCCO)ccc2[nH]1 [Cpd 12, 4-amino-6-(4-fluoro-2-methyl-1H-indol-5-yloxy)-pyrimidine-5-carbaldehyde O-(2-hydroxy-ethyl)-oxime]
- IC50 [1]: 0.372 µM
- IC50 [2]: 0.406 µM
- IC50 [3]: > 100 µM
- IC50 [4]: 9.59 µM
- IC50 [5]: > 10 µM
- IC50 [6]: 0.323 µM
- IC50 [7]: ~100 µM

SMILES: CON=Cc1c(N)ncnc1Oc1ccc2c(c1)cc(C)n2C(=O)NCCN(C)C [Cpd 41, 5-[6-amino-5-(methoxyimino-methyl)-pyrimidin-4-yloxy]-2-methyl-indole-1-carboxylic acid (2-dimethylamino-ethyl)-amide]
- IC50 [1]: > 1 µM
- IC50 [2]: > 10 µM
- IC50 [3]: > 100 µM
- IC50 [4]: > 10 µM
- IC50 [5]: > 10 µM
- IC50 [6]: > 10 µM
- IC50 [8]: 0.0424 µM

SMILES: CON=Cc1c(N)ncnc1Oc1ccc2cccnc2c1 [Cpd 6, 4-amino-6-(quinolin-7-yloxy)-pyrimidine-5-carbaldehyde O-methyl-oxime]
- IC50 [1]: 0.886 µM
- IC50 [2]: 1.82 µM
- IC50 [3]: > 100 µM
- IC50 [4]: > 10 µM
- IC50 [5]: > 10 µM
- IC50 [6]: 2.62 µM
- IC50 [7]: > 100 µM
